According to patent US10738040B2, “Compounds, compositions, and methods for increasing CFTR activity” (Proteostasis Therapeutics, Inc., priority 2014, dated 2020):
Marks after values point to notes of the source that are not given here.

Legend:
ΔF508-CFTR [1] = target: T1, ΔF508-CFTR (Homo sapiens, UniProt P13569, DEL508-508); experiment: Ussing measurements (short-circuit current, CFTRinh-172-inhibitable); type: cell-based; settings: compound at 10 uM and VX-809 at 3 uM, relative to VX-809 (3 uM); hBEs homozygous for ΔF508, 24 hours treatment; CFTRinh-172-inhibitable current
T1 construct: Primary lung epithelial cells homozygous for the Cystic Fibrosis-causing ΔF508 mutation were differentiated; endogenous in cells; host or cells: primary human lung (bronchial) epithelial cells homozygous for ΔF508, differentiated at air-liquid interface
Experimental: As discussed above, Ussing measurements can be used to measure CFTR activity. In this method, primary lung epithelial cells (hBEs) homozygous for the Cystic Fibrosis-causing ΔF508 mutation were differentiated for a minimum of 4 weeks in an air-liquid interface on SnapWell filter plates prior to the Ussing measurements. Cells were apically mucus-washed for 30 minutes prior to treatment with compounds. The basolateral media was removed and replaced with media containing the compound of interest diluted to its final concentration from DMSO stocks. Treated cells were incubated at 37° C. and 5% CO2 for 24 hours. At the end of the treatment period, the cells on filters were transferred to the Ussing chamber and equilibrated for 30 minutes. The short-circuit current was measured in voltage clamp-mode (Vhold=0 mV), and the entire assay was conducted at a temperature of 36° C.-36.5° C. Once the voltages stabilized, the chambers were clamped, and data was recorded by pulse readings every 5 seconds. Following baseline current stabilization, the following additions were applied and the changes in current and resistance of the cells was monitored: • 1. Benzamil to the apical chamber to inhibit ENaC sodium channel. • 2. Forskolin to both chambers to activate ΔF508-CFTR by phosphorylation. • 3. Genistein to both chambers to potentiate ΔF508-CFTR channel opening. • 4. CFTRinh-172 to the apical chamber to inhibit ΔF508-CFTR Cl— conductance. The inhibitable current (that current that is blocked by CFTRinh-172) is measured as the specific activity of the ΔF508-CFTR channel, and increases in response to compound in this activity over that observed in vehicle-treated samples are identified as the correction of ΔF508-CFTR function imparted by the compound tested.

ΔF508-CFTR [2] = target: T1, ΔF508-CFTR; experiment: hBE equivalent current (Ieq) assay; type: cell-based; settings: compound at 10 uM and VX-809 at 1 uM, relative to VX-809 (1 uM); primary lung epithelial cells homozygous for ΔF508, 24 hours treatment; AUC of equivalent chloride current
Experimental: ii. hBE Equivalent Current (Ieq) Assay
Primary lung epithelial cells homozygous for the Cystic Fibrosis-causing ΔF508 mutation were differentiated for a minimum of 4 weeks in an air-liquid interface on Costar 24 well HTS filter plates prior to the equivalent current (Ieq) measurements. Cells were apically mucus-washed for 30 minutes 24 h prior to treatment with compounds. The basolateral media was removed and replaced with media containing the compound of interest diluted to its final concentration from DMSO stocks. Treated cells were incubated at 37° C. and 5% CO2 for 24 hours. At the end of the treatment period, the media was changed to the Ieq experimental solution for 30 minutes before the experiment and plates are maintained in a CO2-free incubator during this period. The plates containing the cells were then placed in pre-warmed heating blocks at 36° ° C.±0.5 for 15 minutes before measurements are taken. The transepithelial voltage (VT) and conductance (GT) were measured using a custom 24 channel current clamp (TECC-24) with 24 well electrode manifold. The Ieq assay measurements were made following additions with standardized time periods: • 1. The baseline VT and GT values were measured for approximately 20 minutes. • 2. Benzamil was added to block ENaC for 15 minutes. • 3. Forskolin plus VX-770 (ivacaftor) were added to maximally activate ΔF508-CFTR for 27 minutes. • 4. Bumetanide was added to inhibit the NaK2Cl cotransporter and shut-off secretion of chloride.
The activity data captured was the area under the curve (AUC) for the traces of the equivalent chloride current. The AUC was collected from the time of the forskolin/VX-770 addition until the inhibition by bumetanide addition. Correction in response to compound treatment was scored as the increase in the AUC for compound-treated samples over that of vehicle-treated samples.

T1 sequence (P13569 with tags, fused parts or gaps DEL508-508): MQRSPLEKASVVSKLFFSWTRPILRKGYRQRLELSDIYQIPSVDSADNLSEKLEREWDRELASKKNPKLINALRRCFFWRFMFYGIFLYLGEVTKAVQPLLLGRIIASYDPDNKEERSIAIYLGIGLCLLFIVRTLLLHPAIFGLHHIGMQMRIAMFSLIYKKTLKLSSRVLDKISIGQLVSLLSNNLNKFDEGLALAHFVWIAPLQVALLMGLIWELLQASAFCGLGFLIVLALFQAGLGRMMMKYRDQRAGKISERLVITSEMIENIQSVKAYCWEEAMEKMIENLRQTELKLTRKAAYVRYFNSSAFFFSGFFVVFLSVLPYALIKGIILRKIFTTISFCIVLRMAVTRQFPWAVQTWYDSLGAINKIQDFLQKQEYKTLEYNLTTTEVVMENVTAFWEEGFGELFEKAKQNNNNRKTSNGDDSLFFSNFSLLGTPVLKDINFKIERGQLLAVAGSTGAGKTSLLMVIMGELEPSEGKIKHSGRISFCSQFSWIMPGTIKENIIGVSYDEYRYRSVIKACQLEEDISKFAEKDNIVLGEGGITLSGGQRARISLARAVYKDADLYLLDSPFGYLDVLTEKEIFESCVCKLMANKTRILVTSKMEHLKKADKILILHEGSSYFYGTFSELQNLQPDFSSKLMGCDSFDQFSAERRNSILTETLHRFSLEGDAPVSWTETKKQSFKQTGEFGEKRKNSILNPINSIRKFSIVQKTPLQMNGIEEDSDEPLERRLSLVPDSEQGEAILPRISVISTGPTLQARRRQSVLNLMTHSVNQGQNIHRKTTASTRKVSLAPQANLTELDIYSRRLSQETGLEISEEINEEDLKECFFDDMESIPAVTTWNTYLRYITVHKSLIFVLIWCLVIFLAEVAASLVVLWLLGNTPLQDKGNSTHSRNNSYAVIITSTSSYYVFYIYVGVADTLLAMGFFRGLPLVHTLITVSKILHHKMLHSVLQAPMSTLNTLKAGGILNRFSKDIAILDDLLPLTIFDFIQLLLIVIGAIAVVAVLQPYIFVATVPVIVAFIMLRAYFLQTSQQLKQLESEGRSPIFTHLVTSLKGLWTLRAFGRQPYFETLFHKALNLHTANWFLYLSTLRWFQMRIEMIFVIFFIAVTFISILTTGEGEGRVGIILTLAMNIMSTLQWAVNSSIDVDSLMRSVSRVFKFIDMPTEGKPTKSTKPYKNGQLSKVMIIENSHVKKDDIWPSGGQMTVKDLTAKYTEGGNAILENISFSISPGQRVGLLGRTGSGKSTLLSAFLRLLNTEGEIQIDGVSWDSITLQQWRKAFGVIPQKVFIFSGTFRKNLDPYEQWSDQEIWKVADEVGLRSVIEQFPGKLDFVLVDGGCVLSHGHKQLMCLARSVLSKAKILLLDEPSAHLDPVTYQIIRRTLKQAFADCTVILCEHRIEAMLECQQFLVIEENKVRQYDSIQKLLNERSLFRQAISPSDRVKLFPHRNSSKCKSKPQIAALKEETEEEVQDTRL

Row | SMILES | Ussing (% VX-809) (ΔF508-CFTR [1]) | Ieq (% VX-809) (ΔF508-CFTR [2])
1 | O=C(N[C@H]1C[C@@H](c2nnc(CO)s2)C1)c1cc(-c2ccccc2)on1 | ## (activity ≥200% of VX-809 (3 uM) with compound at 10 uM and VX-809 at 3 uM) | –
2 | O=C(NC1CC(c2nc(CO)no2)C1)c1cc(-c2ccccc2)on1 (stereo not drawn) | ## (activity ≥200% of VX-809 (3 uM) with compound at 10 uM and VX-809 at 3 uM) | ** (activity ≥200% of VX-809 (1 uM) with compound at 10 uM and VX-809 at 1 uM)
3 | C[C@H](O)c1nnc(C2CC(NC(=O)c3cc(-c4ccccc4)on3)C2)o1 (stereo partly drawn) | ## (activity ≥200% of VX-809 (3 uM) with compound at 10 uM and VX-809 at 3 uM) | ** (activity ≥200% of VX-809 (1 uM) with compound at 10 uM and VX-809 at 1 uM)
4 | C[C@H](c1nnc([C@H]2C[C@H](NC(=O)c3cc(-c4ccccc4)on3)C2)o1)S(C)(=O)=O | ## (activity ≥200% of VX-809 (3 uM) with compound at 10 uM and VX-809 at 3 uM) | * (activity 100-200% of VX-809 (1 uM) with compound at 10 uM and VX-809 at 1 uM)
5 | O=C(N[C@H]1C[C@H](n2cc(CO)nn2)C1)c1cc(-c2ccccc2)on1 | ## (activity ≥200% of VX-809 (3 uM) with compound at 10 uM and VX-809 at 3 uM) | ++ *
6 | O=C(N[C@H]1C[C@H](c2noc(CO)n2)C1)c1cc(-c2ccccc2)on1 | ## (activity ≥200% of VX-809 (3 uM) with compound at 10 uM and VX-809 at 3 uM) | ** (activity ≥200% of VX-809 (1 uM) with compound at 10 uM and VX-809 at 1 uM)
7 | O=C(N[C@H]1C[C@H](n2ccnc2)C1)c1cc(-c2ccccc2)on1 | # (activity 100-200% of VX-809 (3 uM) with compound at 10 uM and VX-809 at 3 uM) | –
8 | O=C(NC1CCC(n2nncc2CO)C1)c1cc(-c2ccccc2)on1 (stereo not drawn) | ## (activity ≥200% of VX-809 (3 uM) with compound at 10 uM and VX-809 at 3 uM) | –
9 | O=C(N[C@H]1C[C@H](n2nncc2CO)C1)c1cc(-c2ccccc2)on1 | ## (activity ≥200% of VX-809 (3 uM) with compound at 10 uM and VX-809 at 3 uM) | ++ *
10 | C[C@@H](O)c1nnc(C[C@H]2C[C@H](NC(=O)c3cc(-c4ccccc4)on3)C2)s1 | ## (activity ≥200% of VX-809 (3 uM) with compound at 10 uM and VX-809 at 3 uM) | ** (activity ≥200% of VX-809 (1 uM) with compound at 10 uM and VX-809 at 1 uM)
11 | O=C(N[C@H]1C[C@H](c2nnc(C3COC3)o2)C1)c1cc(-c2ccccc2)on1 | ## (activity ≥200% of VX-809 (3 uM) with compound at 10 uM and VX-809 at 3 uM) | –
12 | CO[C@H](C)c1nnc([C@H]2C[C@@H](NC(=O)c3cc(-c4ccccc4)on3)C2)o1 | ## (activity ≥200% of VX-809 (3 uM) with compound at 10 uM and VX-809 at 3 uM) | * (activity 100-200% of VX-809 (1 uM) with compound at 10 uM and VX-809 at 1 uM)
13 | O=C(N[C@H]1C[C@@H](c2noc(CO)n2)C1)c1cc(-c2ccccc2)on1 | ## (activity ≥200% of VX-809 (3 uM) with compound at 10 uM and VX-809 at 3 uM) | ** (activity ≥200% of VX-809 (1 uM) with compound at 10 uM and VX-809 at 1 uM)
14 | O=C(N[C@H]1C[C@H](Cc2nnc(CO)s2)C1)c1cc(-c2ccccc2)on1 | ## (activity ≥200% of VX-809 (3 uM) with compound at 10 uM and VX-809 at 3 uM) | –
15 | C[C@@H](O)c1cnnn1[C@H]1C[C@@H](NC(=O)c2cc(-c3ccccc3)on2)C1 | ## (activity ≥200% of VX-809 (3 uM) with compound at 10 uM and VX-809 at 3 uM) | –
16 | C[C@@H](O)c1nnc(C[C@H]2C[C@H](NC(=O)c3cc(-c4ccccc4)on3)C2)o1 | ## (activity ≥200% of VX-809 (3 uM) with compound at 10 uM and VX-809 at 3 uM) | ** (activity ≥200% of VX-809 (1 uM) with compound at 10 uM and VX-809 at 1 uM)
17 | O=C(N[C@H]1C[C@H](c2nnc(CO)s2)C1)c1cc(-c2ccccc2)on1 | ## (activity ≥200% of VX-809 (3 uM) with compound at 10 uM and VX-809 at 3 uM) | ** (activity ≥200% of VX-809 (1 uM) with compound at 10 uM and VX-809 at 1 uM)

Row | SMILES | Ussing (% VX-809) (ΔF508-CFTR [1]) | Ieq (% VX-809) (ΔF508-CFTR [2])
18 | O=C(NC1CC(c2nnc(CO)o2)C1)c1cc(-c2ccccc2)on1 (stereo not drawn) | ## (activity ≥200% of VX-809 (3 uM) with compound at 10 uM and VX-809 at 3 uM) | –
19 | CCCCNC(=O)OCc1cn([C@H]2C[C@H](NC(=O)c3cc(-c4ccccc4)on3)C2)nn1 | ## (activity ≥200% of VX-809 (3 uM) with compound at 10 uM and VX-809 at 3 uM) | –
20 | CN1CC(c2nnc([C@H]3C[C@H](NC(=O)c4cc(-c5ccccc5)on4)C3)o2)C1 | ## (activity ≥200% of VX-809 (3 uM) with compound at 10 uM and VX-809 at 3 uM) | –
21 | O=C(NC1CCC(n2nncc2CO)CC1)c1cc(-c2ccccc2)on1 (stereo not drawn) | # (activity 100-200% of VX-809 (3 uM) with compound at 10 uM and VX-809 at 3 uM) | –
22 | CC(C)O[C@H](C)c1nnc([C@H]2C[C@H](NC(=O)c3cc(-c4ccccc4)on3)C2)o1 | ## (activity ≥200% of VX-809 (3 uM) with compound at 10 uM and VX-809 at 3 uM) | –
23 | C[C@H](O)c1nnc([C@H]2C[C@@H](NC(=O)c3cc(-c4ccccc4)on3)C2)o1 | ## (activity ≥200% of VX-809 (3 uM) with compound at 10 uM and VX-809 at 3 uM) | ** (activity ≥200% of VX-809 (1 uM) with compound at 10 uM and VX-809 at 1 uM)
24 | C[C@@H](O)c1nnc([C@H]2C[C@H](NC(=O)c3cc(-c4ccccc4)on3)C2)s1 | ## (activity ≥200% of VX-809 (3 uM) with compound at 10 uM and VX-809 at 3 uM) | ** (activity ≥200% of VX-809 (1 uM) with compound at 10 uM and VX-809 at 1 uM)
25 | O=C(NC1CCC(n2cc(CO)nn2)CC1)c1cc(-c2ccccc2)on1 (stereo not drawn) | # (activity 100-200% of VX-809 (3 uM) with compound at 10 uM and VX-809 at 3 uM) | –
26 | C[C@@H](O)c1nnc([C@H]2C[C@@H](NC(=O)c3cc(-c4ccccc4)on3)C2)s1 | ## (activity ≥200% of VX-809 (3 uM) with compound at 10 uM and VX-809 at 3 uM) | ** (activity ≥200% of VX-809 (1 uM) with compound at 10 uM and VX-809 at 1 uM)
27 | O=C(N[C@H]1C[C@@H](n2nncc2CO)C1)c1cc(-c2ccccc2)on1 | ## (activity ≥200% of VX-809 (3 uM) with compound at 10 uM and VX-809 at 3 uM) | ** (activity ≥200% of VX-809 (1 uM) with compound at 10 uM and VX-809 at 1 uM)
28 | C[C@@H](O)c1nnc(C2CC(NC(=O)c3cc(-c4ccc(F)cc4)on3)C2)o1 (stereo partly drawn) | ## (activity ≥200% of VX-809 (3 uM) with compound at 10 uM and VX-809 at 3 uM) | –
29 | O=C(NC1CCC(c2nnc(CO)o2)C1)c1cc(-c2ccccc2)on1 (stereo not drawn) | # (activity 100-200% of VX-809 (3 uM) with compound at 10 uM and VX-809 at 3 uM) | –
30 | C[C@H](O)c1nnc([C@H]2C[C@@H](NC(=O)c3cc(-c4ccccc4)on3)C2)s1 | ## (activity ≥200% of VX-809 (3 uM) with compound at 10 uM and VX-809 at 3 uM) | ** (activity ≥200% of VX-809 (1 uM) with compound at 10 uM and VX-809 at 1 uM)
31 | C[C@H](O)c1cnnn1[C@H]1C[C@H](NC(=O)c2cc(-c3ccccc3)on2)C1 | # (activity 100-200% of VX-809 (3 uM) with compound at 10 uM and VX-809 at 3 uM) | ** (activity ≥200% of VX-809 (1 uM) with compound at 10 uM and VX-809 at 1 uM)
32 | C[C@@H](O)c1cn([C@H]2C[C@@H](NC(=O)c3cc(-c4ccccc4)on3)C2)nn1 | ## (activity ≥200% of VX-809 (3 uM) with compound at 10 uM and VX-809 at 3 uM) | –
33 | O=C(NC1CCC(n2cc(CO)nn2)C1)c1cc(-c2ccccc2)on1 (stereo not drawn) | # (activity 100-200% of VX-809 (3 uM) with compound at 10 uM and VX-809 at 3 uM) | –
34 | O=C(N[C@H]1C[C@H](c2nnc(C3CS(=O)(=O)C3)o2)C1)c1cc(-c2ccccc2)on1 | ## (activity ≥200% of VX-809 (3 uM) with compound at 10 uM and VX-809 at 3 uM) | –
